Counter-ions that a name gives are not always drawn.

Series [1] is described as follows: in vitro drug release study (Franz diffusion cell, pH 7.4). The format is physicochemical. The following applies: pH 7.4, 37 °C. How it is done: • Equipment: Franz diffusion cell shown in FIG. 38. • Dissolution medium: Physiological buffer solution pH (7.4) • Temperature: 37±0.2 °C. • Rotational speed: 100 rpm • Mode of sample analysis for Salbutamol sulphate—HPLC-UV analysis using RP C18 250X 4.6 mm; 5-micron, 100 A column and 87 parts of ammonium acetate buffer (pH 3.0, 20 mM) with sodium hexane sulfonate in combination with 13 parts of acetonitrile as a mobile phase. • Mode of sample analysis for Lorazepam—UV analysis, absorbance 280 nm • Mode of sample analysis for Cetirizine dihydrochloride—UV analysis, absorbance 276 nm • Mode of sample analysis for Ondansetran—UV analysis, absorbance 249 nm
Drug release at early time points was used to check the quick release characteristics. Salbutamol sulphate, Lorazepam and Cetirizine dihydrochloride which are soluble drugs released more than 80% achieving the quick release characteristics. Ondansetran which is a poorly soluble drug released about 30% in 20 minutes. Probably owing to its slow rate of dissolution. All drugs were analysed using appropriate UV/HPLC method as described in EXAMPLE 3. (FIGS. 39, 40, 41, 42, 43, 44)

A short description of series [2]: drug classification and dissolution in the fabrication solvent. The format is physicochemical. The following applies: fabrication stage. As to the method: Salbutamol sulphate (Dose per patch 2.5 mg) and Lorazepam (Dose per patch 4 mg) are BCS Class I drugs, Cetirizine dihydrochloride (Dose per patch 5 mg) is BCS class III and Ondansetron Hydrochloride (Dose per patch 16 mg) is BCS Class II. The various drugs were studied for suitability of incorporation into the Dissolving microneedle formulation.

`O=C(O)COCCN1CCN(C(c2ccccc2)c2ccc(Cl)cc2)CC1` (centres unmarked) [Cetirizine dihydrochloride]: in series [1] (batch MN01/02/83A, early time points, UV 276 nm), the Cetirizine dihydrochloride released entry is “more than 80%”. As for `O=C1Nc2ccc(Cl)cc2C(c2ccccc2Cl)=NC1O` (centres unmarked) [Lorazepam], the Lorazepam released result in series [1] (batch MN01/02/82, early time points, UV 280 nm) was “more than 80%”.

Take `Cc1nccn1CC1CCc2c(c3ccccc3n2C)C1=O` (centres unmarked) [Ondansetron Hydrochloride]: the Ondansetran released result in series [1] (batch MN01/02/84, in 20 minutes, UV 249 nm) is recorded as “about 30%”. In addition, in series [2], the “dissolution of drug in the aqueous solvent during fabrication” value is given as “remained dispersed”.

As to `CC(C)(C)NCC(O)c1ccc(O)c(CO)c1` (centres unmarked) [Salbutamol sulphate], in series [1] (batches MN01/02/64, MN01/02/77/A, MN01/02/77/B, early time points, HPLC-UV), the Salbutamol sulphate released entry is on record as “more than 80%”.
